{"source": "PubChem BioAssay AID330", "about": "(DTP/NCI, 2004)", "system": "P388 leukemia ip, CD2F1 mice, survival T/C", "assay": "NCI In Vivo Anticancer Drug Screen. Data for tumor model P388 Leukemia (intraperitoneal) in CD2F1 (CDF1) mice", "settings": "endpoint: median survival time, higher = longer survival", "procedure,_shortened": "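Mice carrying the transplanted tumor received test compound or vehicle. Survival was recorded in each group, and the value is the treated-group measurement divided by that of the vehicle-treated control group.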", "key": {"[1]": {"settings": "dose: 50.0 mg/kg/injection, schedule: Q01DX009 (ip), vehicle: saline"}, "[2]": {"settings": "dose: 100.0 mg/kg/injection, schedule: Q01DX009 (ip), vehicle: saline"}}, "note": "Several values for one entry are separate records, joined by “and”; a condition that tells them apart may be missing. Equal values may be shown once. Inconclusive results and toxic doses are left out."}
{"smiles": "CCOC(=O)CC/C(=C/c1cccc(OC)c1)[N+](=O)[O-]", "values": [{"measurement": "T/C", "setting": "dose: 50.0 mg/kg/injection, schedule: Q01DX001 (ip), vehicle: Klucel (hydroxypropylcellulose) (HPC)", "value": "105 % of control"}, {"measurement": "T/C", "setting": "dose: 100.0 mg/kg/injection, schedule: Q01DX001 (ip), vehicle: Klucel (hydroxypropylcellulose) (HPC)", "value": "107 % of control"}, {"measurement": "T/C", "setting": "dose: 200.0 mg/kg/injection, schedule: Q01DX001 (ip), vehicle: Klucel (hydroxypropylcellulose) (HPC)", "value": "107 % of control"}]}
{"smiles": "CCN(CC)/C(N)=N/O", "values": [{"measurement": "T/C", "setting": "dose: 2.5 mg/kg/injection, schedule: Q01DX009 (ip), vehicle: saline", "value": "95 % of control"}, {"measurement": "T/C", "setting": "dose: 5.0 mg/kg/injection, schedule: Q01DX009 (ip), vehicle: saline", "value": "104 % of control"}, {"measurement": "T/C", "setting": "dose: 10.0 mg/kg/injection, schedule: Q01DX009 (ip), vehicle: saline", "value": "102 % of control"}]}
{"smiles": "CN1CCN(c2ccc3nc(-c4ccc5nc(-c6ccc(O)cc6)[nH]c5c4)[nH]c3c2)CC1", "values": [{"measurement": "T/C", "setting": "[1]", "value": "153 % of control"}]}
{"smiles": "CCc1ccc(C(=O)N/N=C(\\C)[C@]2(O)Cc3c(O)c4c(c(O)c3[C@@H](OC3CC(N)C(O)C(C)O3)C2)C(=O)c2c(OC)cccc2C4=O)cc1", "note": "(some centres undefined)", "values": [{"measurement": "T/C", "setting": "dose: 0.12 mg/kg/injection, schedule: Q01DX009 (ip), vehicle: water", "value": "111 % of control"}, {"measurement": "T/C", "setting": "dose: 1.0 mg/kg/injection, schedule: Q01DX009 (ip), vehicle: water", "value": "154 % of control and 163 % of control"}, {"measurement": "T/C", "setting": "dose: 2.0 mg/kg/injection, schedule: Q01DX009 (ip), vehicle: water", "value": "160 % of control and 175 % of control"}, {"measurement": "T/C", "setting": "dose: 4.0 mg/kg/injection, schedule: Q01DX009 (ip), vehicle: water", "value": "151 % of control and 175 % of control"}, {"measurement": "T/C", "setting": "dose: 8.0 mg/kg/injection, schedule: Q01DX009 (ip), vehicle: water", "value": "86 % of control and 93 % of control"}]}
{"smiles": "O=c1cccc2c1c1cc[nH]c3ccc(=O)n2c31", "values": [{"measurement": "T/C", "setting": "dose: 1.25 mg/kg/injection, schedule: Q01DX009 (ip), vehicle: saline with Tween-80", "value": "98 % of control"}, {"measurement": "T/C", "setting": "dose: 2.5 mg/kg/injection, schedule: Q01DX009 (ip), vehicle: saline with Tween-80", "value": "107 % of control"}, {"measurement": "T/C", "setting": "dose: 5.0 mg/kg/injection, schedule: Q01DX009 (ip), vehicle: saline with Tween-80", "value": "102 % of control"}]}
{"smiles": "CCCCCCOC(=O)C1=C(NC)CCC1", "values": [{"measurement": "T/C", "setting": "[1]", "value": "106 % of control"}, {"measurement": "T/C", "setting": "[2]", "value": "119 % of control"}]}
{"smiles": "CCOP(=S)(Oc1cnn(C)c(=O)c1OC)OC(C)C", "note": "(centres undefined)", "values": [{"measurement": "T/C", "setting": "dose: 0.78 mg/kg/injection, schedule: Q01DX005 (ip), vehicle: saline with Tween-80", "value": "98 % of control"}, {"measurement": "T/C", "setting": "dose: 1.56 mg/kg/injection, schedule: Q01DX005 (ip), vehicle: saline with Tween-80", "value": "100 % of control"}, {"measurement": "T/C", "setting": "dose: 3.13 mg/kg/injection, schedule: Q01DX005 (ip), vehicle: saline with Tween-80", "value": "98 % of control"}]}
{"smiles": "CC1([P+](C)(C)C)C2C=CC1CC2", "note": "(centres undefined)", "values": [{"measurement": "T/C", "setting": "dose: 25.0 mg/kg/injection, schedule: Q01DX001 (ip), vehicle: saline", "value": "100 % of control"}, {"measurement": "T/C", "setting": "dose: 50.0 mg/kg/injection, schedule: Q01DX001 (ip), vehicle: saline", "value": "103 % of control"}, {"measurement": "T/C", "setting": "dose: 100.0 mg/kg/injection, schedule: Q01DX001 (ip), vehicle: saline with Tween-80", "value": "105 % of control"}, {"measurement": "T/C", "setting": "dose: 100.0 mg/kg/injection, schedule: Q01DX001 (ip), vehicle: saline", "value": "100 % of control"}]}
{"smiles": "CCOC(=O)C(=CNC1CC(OC2C[C@](O)(C(C)=O)Cc3c(O)c4c(c(O)c32)C(=O)c2c(OC)cccc2C4=O)OC(C)C1O)C(=O)OCC", "note": "(some centres undefined)", "values": [{"measurement": "T/C", "setting": "dose: 6.25 mg/kg/injection, schedule: Q04DX003 (ip), vehicle: saline with Tween-80", "value": "95 % of control"}, {"measurement": "T/C", "setting": "dose: 12.5 mg/kg/injection, schedule: Q04DX003 (ip), vehicle: saline with Tween-80", "value": "100 % of control"}, {"measurement": "T/C", "setting": "dose: 25.0 mg/kg/injection, schedule: Q04DX003 (ip), vehicle: saline with Tween-80", "value": "104 % of control"}, {"measurement": "T/C", "setting": "dose: 50.0 mg/kg/injection, schedule: Q04DX003 (ip), vehicle: saline with Tween-80", "value": "108 % of control"}]}
{"smiles": "CO/C1=C\\C(C)=C\\C(C)C(O)C(C)C/C(C)=C/C=C/C(OC)C(C(C)C(O)C(C)C2(O)CC(O)C(C)C(C(C)C)O2)OC1=O", "note": "(centres undefined)", "values": [{"measurement": "T/C", "setting": "dose: 1.25 mg/kg/injection, schedule: Q01DX005 (ip), vehicle: other", "value": "104 % of control"}, {"measurement": "T/C", "setting": "dose: 2.5 mg/kg/injection, schedule: Q01DX005 (ip), vehicle: other", "value": "104 % of control"}, {"measurement": "T/C", "setting": "dose: 5.0 mg/kg/injection, schedule: Q01DX005 (ip), vehicle: other", "value": "113 % of control"}]}
{"smiles": "CC12CCC(OC3OC(CO)C(O)C(O)C3O)CC1CCC1C2CCC2(C)C(c3ccc(=O)oc3)CCC12O", "note": "(centres undefined)", "values": [{"measurement": "T/C", "setting": "dose: 0.35 mg/kg/injection, schedule: Q01DX009 (ip), vehicle: saline", "value": "96 % of control"}, {"measurement": "T/C", "setting": "dose: 0.7 mg/kg/injection, schedule: Q01DX009 (ip), vehicle: saline", "value": "102 % of control"}, {"measurement": "T/C", "setting": "dose: 1.4 mg/kg/injection, schedule: Q01DX009 (ip), vehicle: saline", "value": "100 % of control"}]}
{"smiles": "COC(=O)C12CCC(CC1C13CCCC(C)(C)C1C(=O)OC3)C(C)C2O", "note": "(centres undefined)", "values": [{"measurement": "T/C", "setting": "dose: 100.0 mg/kg/injection, schedule: Q04DX002 (ip), vehicle: saline with Tween-80", "value": "96 % of control"}, {"measurement": "T/C", "setting": "dose: 200.0 mg/kg/injection, schedule: Q04DX002 (ip), vehicle: saline with Tween-80", "value": "94 % of control"}, {"measurement": "T/C", "setting": "dose: 400.0 mg/kg/injection, schedule: Q04DX002 (ip), vehicle: saline with Tween-80", "value": "94 % of control"}]}
{"smiles": "Cc1nc(Cl)c(C)c(=O)[nH]1", "values": [{"measurement": "T/C", "setting": "[1]", "value": "165 % of control"}, {"measurement": "T/C", "setting": "[2]", "value": "166 % of control"}]}
